These results are taken from patent US9242984B2, “Pyrazolyl derivatives as Syk inhibitors” (Merck Sharp & Dohme Corp., priority 2012, dated 2016).

The experiment addresses T1, recombinant human Syk (GST-hSyk fusion protein) (Homo sapiens, UniProt P43405).
T1 construct: purchased Carna Biosciences 08-176
Briefly: Homogeneous Time-Resolved Fluorescence (HTRF) assay for the recombinant human Syk enzyme. The experiment is classed as biochemical. The following applies: 10-dose titration, 25 μM ATP. An outline of the steps: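 IC50 came from a four-parameter fit over ten doses, 10 μM to 0.508 nM, with HTRF read-out (Eu-anti-pTyr antibody, SA-APC, EDTA stop, 30 min). The enzyme, 5 pM GST-hSyk, met compound for 10 min, then phosphorylated 250 nM biotin-peptide with 25 μM ATP and 5 mM Mg for 45 min at room temperature, pH 7.5.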
For orientation: In TR-FRET formats the signal depends on donor and acceptor labels being close together.

Setting [1] is: IC50 class, read-out: rhSYK Activity.

Like-named read-outs stand apart in the source and are kept apart here. Bounds are passed on as bounds.

Take `Cc1cc(Nc2nccc(C(F)F)n2)cc(-c2cnn(CC(O)(CO)C(F)(F)F)c2)c1` (single isomer, unassigned) [Example 32.2, (S or R)-2-((4-(3-((4-(difluoromethyl)pyrimidin-2-yl)amino)-5-methylphenyl)-1H-pyrazol-1-yl)methyl)-3,3,3-trifluoropropane-1,2-diol]: the IC50 reads like this: (read-out: rhSYK IC50) 3.3 nM; under setting [1], no more than 100 nM.

In the case of `Cc1cc(Nc2nccc(C(F)F)n2)cc(-c2cnn(CC3OC(=O)NC3CO)c2)c1` (single isomer, unassigned) [Example 33.1, 5-{[4-(3-{[4-(difluoromethyl)pyrimidin-2-yl]amino}-5-methylphenyl)-1H-pyrazol-1-yl]methyl}-4-(hydroxymethyl)-1,3-oxazolidin-2-one], the IC50 was 1.6 nM (read-out: rhSYK IC50) and no more than 100 nM under setting [1].

`Cc1cc(Nc2nccc(C(F)F)n2)cc(-c2cnn(CC3OC(=O)NC3CO)c2)c1` (single isomer, unassigned) [Example 33.2, 5-{[4-(3-{[4-(difluoromethyl)pyrimidin-2-yl]amino}-5-methylphenyl)-1H-pyrazol-1-yl]methyl}-4-(hydroxymethyl)-1,3-oxazolidin-2-one]: under setting [1], the IC50 was no more than 100 nM.

`Cc1cc(Nc2nccc(C(F)F)n2)cc(-c2cnn(CC3OC(=O)NC3CO)c2)c1` (single isomer, unassigned) [Example 33.3, 5-{[4-(3-{[4-(difluoromethyl)pyrimidin-2-yl]amino}-5-methylphenyl)-1H-pyrazol-1-yl]methyl}-4-(hydroxymethyl)-1,3-oxazolidin-2-one]: the IC50 under setting [1] is no more than 100 nM.

Consider `Cc1cc(Nc2nccc(C(F)F)n2)cc(-c2cnn(CC3OC(=O)NC3CO)c2)c1` (single isomer, unassigned) [Example 33.4, 5-{[4-(3-{[4-(difluoromethyl)pyrimidin-2-yl]amino}-5-methylphenyl)-1H-pyrazol-1-yl]methyl}-4-(hydroxymethyl)-1,3-oxazolidin-2-one], for which, under setting [1], the IC50 was no more than 100 nM.

In the case of `Cc1cc(Nc2nccc(C(F)F)n2)cc(-c2cnn(C(C[C@H](C)O)[C@@H](C)O)c2)c1` (stereo in doubt) [Example 2.49, 3-[4-(3-{[4-(difluoromethyl)pyrimidin-2-yl]amino}-5-methylphenyl)-1H-pyrazol-1-yl]hexane-2,5-diol], the IC50 under setting [1] is no more than 100 nM.

`Cc1cc(Nc2nccc(C(F)F)n2)cc(-c2cnn(C(C[C@@H](C)O)[C@H](C)O)c2)c1` (stereo in doubt) [Example 2.50, 3-[4-(3-{[4-(difluoromethyl)pyrimidin-2-yl]amino}-5-methylphenyl)-1H-pyrazol-1-yl]hexane-2,5-diol]: under setting [1], the IC50 was no more than 100 nM.

`Cc1cc(Nc2nccc(C(F)F)n2)cc(-c2cnn(C(C[C@H](C)O)[C@H](C)O)c2)c1` (stereo in doubt) [Example 2.51, 3-[4-(3-{[4-(difluoromethyl)pyrimidin-2-yl]amino}-5-methylphenyl)-1H-pyrazol-1-yl]hexane-2,5-diol]: the IC50 under setting [1] was no more than 100 nM.

With `Cc1cc(Nc2nccc(C(F)F)n2)cc(-c2cnn(C(C[C@@H](C)O)[C@@H](C)O)c2)c1` (stereo in doubt) [Example 2.52, 3-[4-(3-{[4-(difluoromethyl)pyrimidin-2-yl]amino}-5-methylphenyl)-1H-pyrazol-1-yl]hexane-2,5-diol], the IC50 under setting [1] was no more than 100 nM.

For the molecule `Cc1cc(Nc2nccc(C(F)F)n2)cc(-c2cnn(C(C[C@H](C)O)[C@@H](C)O)c2)c1` (stereo in doubt) [Example 2.53, 3-[4-(3-{[4-(difluoromethyl)pyrimidin-2-yl]amino}-5-methylphenyl)-1H-pyrazol-1-yl]hexane-2,5-diol], under setting [1], the IC50 is no more than 100 nM.

In the case of `Cc1cc(Nc2nccc(C(F)F)n2)cc(-c2cnn(C(C[C@@H](C)O)[C@H](C)O)c2)c1` (stereo in doubt) [Example 2.54, 3-[4-(3-{[4-(difluoromethyl)pyrimidin-2-yl]amino}-5-methylphenyl)-1H-pyrazol-1-yl]hexane-2,5-diol], the IC50 under setting [1] is no more than 100 nM.

Regarding `Cc1cc(Nc2nccc(C(F)F)n2)cc(-c2cnn(C(C[C@H](C)O)[C@H](C)O)c2)c1` (stereo in doubt) [Example 2.55, 3-[4-(3-{[4-(difluoromethyl)pyrimidin-2-yl]amino}-5-methylphenyl)-1H-pyrazol-1-yl]hexane-2,5-diol], the IC50 under setting [1] is no more than 100 nM.

Regarding `Cc1cc(Nc2nccc(C(F)F)n2)cc(-c2cnn(C(C[C@@H](C)O)[C@@H](C)O)c2)c1` (stereo in doubt) [Example 2.56, 3-[4-(3-{[4-(difluoromethyl)pyrimidin-2-yl]amino}-5-methylphenyl)-1H-pyrazol-1-yl]hexane-2,5-diol], the IC50 under setting [1] is no more than 100 nM.

Take `Cc1cc(Nc2nccc(C(F)(F)F)n2)cc(-c2cnn(CCS(N)(=O)=O)c2)c1` [9.2]: the IC50 under setting [1] is no more than 100 nM.

Regarding `Cc1cc(Nc2nccc(C(F)(F)F)n2)cc(-n2ccc(Cl)n2)c1` [19.9], the IC50 under setting [1] is 100 to 1000 nM.

Take `Cc1cc(Nc2nccc(C(F)(F)F)n2)cc(-c2cnn3ccccc23)c1` [Example 1.1, N-(3-methyl-5-(pyrazolo[1,5-a]pyridin-3-yl)phenyl)-4-(trifluoromethyl)pyrimidin-2-amine]: the IC50 is 65.8 nM (read-out: rhSYK IC50) and no more than 100 nM under setting [1].

In the case of `Cc1cc(Nc2nccc(C(F)(F)F)n2)cc(-c2cnn(CCC(=O)O)c2)c1` [Example 1.2, 3-[4-(3-methyl-5-{[4-(trifluoromethyl)-pyrirnidin-2-yl]amino}-phenyl)-1H-pyrazol-1-yl]-propanoic acid], under setting [1], the IC50 is no more than 100 nM.

For the molecule `Cc1cc(Nc2nccc(C(F)(F)F)n2)cc(-c2cnn(C)c2)c1` [Example 1.3, N-[3-methyl-5-(1-methyl-1H-pyrazol-4-yl)phenyl]-4-(trifluoromethyl)-pyrimidin-2-amine], the IC50 under setting [1] is no more than 100 nM.

With `Cc1cc(Nc2nccc(C(F)(F)F)n2)cc(-c2cnn(C3CCC(C(=O)OC(C)(C)C)CC3)c2)c1` (stereo not drawn) [Example 1.4, tert-butyl 4-[4-(3-methyl-5-{[4-(trifluoromethyl)-pyrimidin-2-yl]amino}-phenyl)-1H-pyrazol-1-yl]-cyclohexanecarboxylate], the IC50 under setting [1] was 1000 to 10000 nM.

Turning to `Cc1cc(Nc2nccc(C(F)(F)F)n2)cc(-c2cnn(C3C=CCCC3)c2)c1` (stereo not drawn) [Example 1.5, N-[3-(1-cyclohex-2-en-1-yl-1H-pyrazol-4-yl)-5-methylphenyl]-4-(trifluoromethyl)-pyrimidin-2-amine], the IC50 under setting [1] was no more than 100 nM.

`Cc1cc(Nc2nccc(C(F)(F)F)n2)cc(-c2cn[nH]c2)c1` [Example 1.6, N-[3-methyl-5-(1H-pyrazol-4-yl)phenyl]-4-(trifluoromethyl)-pyrimidin-2-amine]: the IC50 under setting [1] was no more than 100 nM.

In the case of `Cc1cc(Nc2nccc(C(F)(F)F)n2)cc(-c2cc[nH]n2)c1` [Example 1.7, N-[3-methyl-5-(1H-pyrazol-3-yl)phenyl]-4-(trifluoromethyl)pyrimidin-2-amine], under setting [1], the IC50 is no more than 100 nM.

Take `Cc1cc(Nc2nccc(C(F)(F)F)n2)cc(-c2ccnn2C(C)C)c1` [Example 1.8, N-{3-methyl-5-[1-(1-methylethyl)-1H-pyrazol-5-yl]phenyl}-4-(trifluoromethyl)pyrimidin-2-amine]: under setting [1], the IC50 was in the range of 100 to 1000 nM.

Consider `Cc1cc(Nc2nccc(C(F)(F)F)n2)cc(-c2ccnn2C)c1` [Example 1.9, N-[3-methyl-5-(1-methyl-1H-pyrazol-5-yl)phenyl]-4-(trifluoromethyl)pyrimidin-2-amine], for which, under setting [1], the IC50 was in the range of 100 to 1000 nM.
